According to the supplement of paper PMC13380429:
± gives the standard deviation of the averaged measurements.

Legend:
Details in all cases: 72 h
Vero E6 [1] = experiment: relative viability EC50 (midpoint between 100% and the lowest measured viability); higher = less toxic
Caco-2 [2] = experiment: as above
U2OS [3] = experiment: as above
HepG2 [4] = experiment: as above
Calu-3 [5] = experiment: as above
Vero E6 [6] = experiment: drug sensitivity score (DSS) for viability; higher = more toxic; extreme values may be limits of the assay
Caco-2 [7] = experiment: as above
U2OS [8] = experiment: as above
HepG2 [9] = experiment: as above
Calu-3 [10] = experiment: as above
Vero E6 [11] = experiment: cell viability relative to DMSO; higher = less toxic
Caco-2 [12] = experiment: as above
U2OS [13] = experiment: as above
HepG2 [14] = experiment: as above
Calu-3 [15] = experiment: as above

Row | SMILES | relative viability EC50 (Vero E6 [1]) | relative viability EC50 (Caco-2 [2]) | relative viability EC50 (U2OS [3]) | relative viability EC50 (HepG2 [4]) | relative viability EC50 (Calu-3 [5]) | drug sensitivity score (Vero E6 [6]) | drug sensitivity score (Caco-2 [7]) | drug sensitivity score (U2OS [8]) | drug sensitivity score (HepG2 [9]) | drug sensitivity score (Calu-3 [10]) | cell viability (Vero E6 [11]; 1 nM) | cell viability (Vero E6 [11]; 10 nM) | cell viability (Vero E6 [11]; 100 nM) | cell viability (Vero E6 [11]; 1000 nM) | cell viability (Vero E6 [11]; 10000 nM) | cell viability (Caco-2 [12]; 1 nM) | cell viability (Caco-2 [12]; 10 nM) | cell viability (Caco-2 [12]; 100 nM) | cell viability (Caco-2 [12]; 1000 nM) | cell viability (Caco-2 [12]; 10000 nM) | cell viability (U2OS [13]; 1 nM) | cell viability (U2OS [13]; 10 nM) | cell viability (U2OS [13]; 100 nM) | cell viability (U2OS [13]; 1000 nM) | cell viability (U2OS [13]; 10000 nM) | cell viability (HepG2 [14]; 1 nM) | cell viability (HepG2 [14]; 10 nM) | cell viability (HepG2 [14]; 100 nM) | cell viability (HepG2 [14]; 1000 nM) | cell viability (HepG2 [14]; 10000 nM) | cell viability (Calu-3 [15]; 1 nM) | cell viability (Calu-3 [15]; 10 nM) | cell viability (Calu-3 [15]; 100 nM) | cell viability (Calu-3 [15]; 1000 nM) | cell viability (Calu-3 [15]; 10000 nM)
1 | N#C/C(=C\c1ccc(O)c(O)c1)C(=O)OCCc1cccs1 [2-TEDC] | > 10 µM | > 10 µM | > 10 µM | > 10 µM | > 10 µM | 0 | 0 | 0 | 1 | 0 | 98.5% | 97.9% | 96.7% | 93.6% | 102% | 96.3% | 102% | 91.8% | 101% | 99.3% | 98.6% | 101% | 96.1% | 99.2% | 95.2% | 93.8% | 96.1% | 104% | 86% | 91.3% | 91.1% | 94.2% | 96.1% | 99.4% | 93.9%
2 | C[C@]12CC[C@@H](O)C[C@H]1CC[C@@H]1[C@@H]2CC[C@]2(C)C(=O)CC[C@@H]12 [3-alpha-hydroxy-5-beta-androstan-17-one] | > 10 µM | > 10 µM | > 10 µM | > 10 µM | > 10 µM | 0 | 0.233 ± 0.4 | 0 | 0.233 ± 0.4 | 0 | 99.8 ± 2.9% | 101 ± 1.3% | 103 ± 3.8% | 103 ± 2.3% | 94.3 ± 1.5% | 97.8 ± 5% | 104 ± 14% | 97.6 ± 4.1% | 98.8 ± 3.4% | 92.9 ± 15% | 102 ± 2.1% | 97.8 ± 1.6% | 102 ± 2.6% | 98.6 ± 2.8% | 99.9 ± 3.2% | 101 ± 8.8% | 96.6 ± 5.6% | 102 ± 5.1% | 104 ± 7.5% | 87.4 ± 9.7% | 99.6 ± 4.8% | 97.4 ± 4% | 96.1 ± 3.2% | 97.8 ± 6.8% | 101 ± 3.2%
3 | O=C(O)C(=O)CBr [3-bromopyruvate] | > 10 µM | > 10 µM | > 10 µM | > 10 µM | > 10 µM | 0 | 0 | 0 | 0 | 0 | 96.7% | 96.6% | 96.9% | 96.7% | 92.8% | 95.5% | 97.1% | 96.5% | 97.2% | 97.9% | 97.7% | 99.4% | 98% | 102% | 104% | 104% | 92.1% | 100% | 99.7% | 101% | 102% | 98% | 105% | 98.9% | 94.2%
4 | CCCN[C@@H]1CCc2c(OC)cccc2[C@@H]1C [AJ76-(+)] | > 10 µM | > 10 µM | > 10 µM | > 10 µM | > 10 µM | 0 | 0 | 0 | 0 | 0 | 97.8% | 104% | 96.6% | 99.6% | 91.3% | 104% | 97.8% | 96.4% | 86.8% | 96.7% | 102% | 105% | 95.7% | 95.9% | 98.8% | 88.5% | 100% | 103% | 103% | 94% | 100% | 95.9% | 96.8% | 96% | 114%
5 | COc1cnc(-c2ccc(Cn3c(CC(C)(C)C(=O)O)c(SC(C)(C)C)c4cc(OC[C@@H]5Cc6ccccc6N5C(C)=O)ccc43)cc2)nc1 [AM679] | > 10 µM | > 10 µM | > 10 µM | > 10 µM | > 10 µM | 0 | 0 | 0 | 0 | 0 | 114% | 105% | 106% | 99.9% | 128% | 102% | 94% | 99% | 97% | 92.4% | 102% | 99.8% | 99.7% | 100% | 98.1% | 103% | 104% | 101% | 102% | 93.4% | 101% | 95.4% | 101% | 109% | 107%
6 | Cc1nc2cnc3ccc(C#Cc4cccnc4)cc3c2n1-c1ccc(C(C)(C)C#N)cc1 [BAG-956] | 0.41 µM | 0.139 µM | 0.202 µM | 0.604 µM | 0.144 µM | 10.8 | 15.3 | 15.8 | 7.9 | 16.3 | 104% | 103% | 97.5% | 42.6% | 35.3% | 97.8% | 101% | 79.7% | 33.5% | 33.3% | 97.4% | 101% | 88.8% | 24.9% | 23.8% | 104% | 103% | 93.3% | 62.3% | 41.4% | 92.7% | 96.2% | 79% | 27.7% | 30.2%
7 | CC(C)n1c(=O)n(C(=O)N[C@H]2C[C@H]3CC[C@@H](C2)N3C)c2ccccc21 [BIMU-8] | > 10 µM | > 10 µM | > 10 µM | > 10 µM | > 10 µM | 0 | 0 | 0 | 0 | 0 | 105% | 99.6% | 99.6% | 98.9% | 94.7% | 99% | 105% | 98.1% | 102% | 96.9% | 102% | 103% | 99.1% | 101% | 99.1% | 93.2% | 95.2% | 90.5% | 93.2% | 97% | 96.4% | 105% | 96.3% | 92.3% | 93.9%
8 | CN1C(=O)N(c2cc(Cl)cc(Cl)c2)C(=O)[C@@]1(C)Cc1ccc(Br)cc1 [BIRT-377] | > 10 µM | > 10 µM | > 10 µM | > 10 µM | > 10 µM | 0 | 0.3 | 0 | 0 | 0 | 98.7% | 96.8% | 104% | 95.3% | 101% | 101% | 98% | 97.9% | 102% | 83.4% | 98.1% | 100% | 95.2% | 99.2% | 88.8% | 105% | 101% | 104% | 86.6% | 103% | 98.4% | 92.8% | 91.1% | 105% | 92.7%
9 | CC(C)(C)c1ccc2cc(C#N)c(C#N)cc2c1 [BRD9876] | > 10 µM | > 10 µM | > 10 µM | > 10 µM | > 10 µM | 0 | 0.1 | 0 | 0 | 0.2 | 98.5% | 104% | 99.2% | 99.4% | 97.8% | 99% | 98.6% | 102% | 96% | 89% | 101% | 106% | 95.6% | 99.8% | 94.9% | 97.7% | 98.8% | 90.7% | 89.9% | 97.6% | 103% | 100% | 90.2% | 95.8% | 85.9%
10 | CC1=NN(c2ccc(C(=O)O)cc2)C(=O)C1=Cc1ccc(-c2cc(C)c(C)cc2[N+](=O)[O-])o1 [C646] | > 10 µM | > 10 µM | > 10 µM | > 10 µM | > 10 µM | 0 | 0 | 0 | 0 | 0.4 | 97.3% | 102% | 100% | 100% | 99% | 87.3% | 90.5% | 101% | 94% | 98.1% | 102% | 95.6% | 98.8% | 94.9% | 92.9% | 90% | 102% | 92.5% | 93.7% | 90.5% | 106% | 98.1% | 89.3% | 89.6% | 98.9%
11 | Nc1nc(-c2ccc(Cl)c(Cl)c2)c(-c2ccncc2)s1 [CGH2466] | > 10 µM | > 10 µM | > 10 µM | > 10 µM | > 10 µM | 0 | 0 | 0 | 0 | 0 | 87.1% | 95.3% | 100% | 93.9% | 93.9% | 91.8% | 86.1% | 102% | 99.7% | 95.9% | 96.5% | 99.9% | 96.3% | 100% | 90.1% | 96.5% | 104% | 117% | 106% | 112% | 109% | 100% | 107% | 95.7% | 107%
12 | CN1CCN(c2ccc(/C=C(\C#N)c3ccccc3Br)cc2)CC1 [DG-172] | > 10 µM | > 10 µM | > 10 µM | > 10 µM | > 10 µM | 0 | 0.2 | 0 | 0.3 | 0 | 106% | 108% | 104% | 105% | 91.3% | 102% | 99.5% | 100% | 95.5% | 88.5% | 105% | 101% | 106% | 100% | 94.8% | 101% | 99.9% | 104% | 105% | 82.1% | 114% | 102% | 104% | 100% | 90.6%
13 | Cc1nc2c(c(=O)[nH]1)CSCC2 [DR-2313] | > 10 µM | > 10 µM | > 10 µM | > 10 µM | > 10 µM | 0 | 0 | 0 | 0 | 0 | 98% | 100% | 97.8% | 94.6% | 108% | 92.6% | 88.9% | 90.1% | 95.7% | 97.4% | 102% | 99.1% | 99.9% | 97.1% | 99.1% | 99.8% | 101% | 98.3% | 108% | 94.6% | 105% | 92.2% | 95% | 95.5% | 91.9%
14 | CC(C)C[C@H](NC(=O)OCc1ccccc1)C(=O)N[C@@H](C[C@@H]1CCNC1=O)C(O)S(=O)(=O)O (stereo not given in full) [GC376 sodium] | > 10 µM | > 10 µM | > 10 µM | > 10 µM | > 10 µM | 0 | 0 | 0 | 0 | 0 | 90.3% | 104% | 93.2% | 102% | 108% | 97.2% | 92.6% | 96.7% | 92.7% | 108% | 90.4% | 101% | 97.3% | 100% | 108% | 101% | 99.8% | 97% | 102% | 95.4% | 105% | 92.2% | 99.9% | 104% | 96.1%
